Measurements: patent publication US12606566B2, “Substituted cyclopenta[4,5]pyrrolo[1,2-a]pyrazines as bruton's tyrosine kinase inhibitors” (Shanghai Synergy Pharmaceutical Sciences Co., Ltd., priority 2020, dated 2026)

Tests used:
BTK kinase = BTK kinase (Homo sapiens, UniProt Q06187); assay: BTK kinase inhibitory activity, mobility shift method; assay type: biochemical; settings: compound co-incubated with the enzyme for 30 minutes
Protocol: The BTK kinase inhibitory activity of the compound was determined using a mobility shift method with the reaction system (kinase solution, ATP, kinase substrate2). The compound was co-incubated with the enzyme for 30 minutes, and then the conversion rate was read using the Caliper EZ reader. The compound inhibition rate was determined using the calculation formula and the data was fitted using Graphpad to derive the IC50 value for the compounds of this application.

[1] = tested on: tumour cells (A20 5E6 cells); assay: Inhibitory effect on tumour cell proliferation (CCK8); assay type: cell-based; settings: CCK8 absorbance, read-out: Inhibitory effect of the compound on cell proliferation IC50
Protocol: This experiment was to determine the effect of the compound on cell proliferation.
To determine the inhibitory effect of the compound on the proliferation of tumour cells, tumour cells (A20 5E6 cells) were cultured to a certain amount and seeded into 96-well plates. […] The absorbance value was measured after the addition of CCK8 and 2 h incubation to determine the inhibitory effect of the compound on cell proliferation. The IC50 value of the compound was obtained by data fitted with Graphpad.

Chain of BTK kinase (Q06187 whole entry): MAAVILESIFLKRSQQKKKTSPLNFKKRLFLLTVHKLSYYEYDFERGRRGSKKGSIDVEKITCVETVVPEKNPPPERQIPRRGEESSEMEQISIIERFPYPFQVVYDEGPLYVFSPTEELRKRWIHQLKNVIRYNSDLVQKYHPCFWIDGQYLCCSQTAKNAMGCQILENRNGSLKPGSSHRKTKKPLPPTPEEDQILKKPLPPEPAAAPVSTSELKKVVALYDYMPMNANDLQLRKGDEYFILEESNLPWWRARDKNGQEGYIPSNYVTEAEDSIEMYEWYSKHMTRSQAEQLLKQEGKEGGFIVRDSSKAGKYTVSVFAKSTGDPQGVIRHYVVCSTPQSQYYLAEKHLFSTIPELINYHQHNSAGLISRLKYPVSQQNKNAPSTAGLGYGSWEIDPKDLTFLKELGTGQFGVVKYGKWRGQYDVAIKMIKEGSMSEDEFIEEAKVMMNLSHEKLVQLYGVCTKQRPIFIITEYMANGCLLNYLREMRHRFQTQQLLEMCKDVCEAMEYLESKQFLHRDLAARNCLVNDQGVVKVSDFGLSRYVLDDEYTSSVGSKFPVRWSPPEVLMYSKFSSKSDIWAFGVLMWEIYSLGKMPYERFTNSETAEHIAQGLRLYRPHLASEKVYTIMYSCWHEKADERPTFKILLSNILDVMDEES

Compound | IC50 (BTK kinase) | IC50 [1]
CN1CCN(c2ccc(Nc3cc(-c4ccnc(N5CCn6c(cc7c6CC(C)(C)C7)C5=O)c4CO)nc4ccoc34)nc2)CC1 [Example H08, 2-(3-(hydroxymethyl)-4-(7-((5-(4-methylpiperazin-1-yl)pyridin-2-yl)amino)furo[3,2-b]pyridin-5-yl)pyridin-2-yl)-7,7-dimethyl-3,4,7,8-tetrahydro-2H-cyclopenta[4,5]pyrrolo[1,2-a]pyrazin-1(6H)-one] | 0.23 nM | 29 nM
CNc1c2c(n3c1C(=O)N(c1nccc(-c4cc(Nc5ccc(N6CCN(C7COC7)C[C@@H]6C)cn5)c(=O)n(C)c4)c1CO)CC3)CC(C)(C)C2 [Example H26, (S)-2-(3′-(hydroxymethyl)-1-methyl-5-((5-(2-methyl-4-(oxetan-3-yl)piperazin-1-yl)pyridin-2-yl)amino)-6-oxo-1,6-dihydro-[3,4′-bipyridin]-2′-yl)-9-methylamino-7,7-dimethyl-3,4,7,8-tetrahydro-2H-cyclopenta[4,5]pyrrolo[1,2-a]pyrazin-1(6H)-one] | 0.46 nM | 
CN1CCN(c2ccc(Nc3cc(-c4ccnc(N5CCn6c7c(c(F)c6C5=O)CC(C)(C)C7)c4CO)cn(C)c3=O)nc2)CC1 [Example H14, 9-fluoro-2-(3′-(hydroxymethyl)-1-methyl-5-((5-(4-methylpiperazin-1-yl)pyridin-2-yl)amino)-6-oxo-1,6-dihydro-[3,4′-bipyridin]-2′-yl)-7,7-dimethyl-3,4,7,8-tetrahydro-2H-cyclopenta[4,5]pyrrolo[1,2-a]pyrazin-1(6H)-one] | 0.27 nM | 47 nM
C[C@H]1CN(C2COC2)CCN1c1ccc(Nc2cc(-c3ccnc(N4CCn5c6c(c(OC7CC7)c5C4=O)CC(C)(C)C6)c3CO)cn(C)c2=O)nc1 [Example H23, (S)-9-cyclopropoxy-2-(3′-(hydroxymethyl)-1-methyl-5-((5-(2-methyl-4-(oxetan-3-yl)piperazin-1-yl)pyridin-2-yl)amino)-6-oxo-1,6-dihydro-[3,4′-bipyridin]-2′-yl)-7,7-dimethyl-3,4,7,8-tetrahydro-2H-cyclopenta[4,5]pyrrolo[1,2-a]pyrazin-1(6H)-one] | 0.51 nM | 
CC(C)Oc1c2c(n3c1C(=O)N(c1nccc(-c4cc(Nc5ccc(N6CCN(C7COC7)C[C@@H]6C)cn5)c(=O)n(C)c4)c1CO)CC3)CC(C)(C)C2 [Example H24, (S)-2-(3′-(hydroxymethyl)-1-methyl-5-((5-(2-methyl-4-(oxetan-3-yl)piperazin-1-yl)pyridin-2-yl)amino)-6-oxo-1,6-dihydro-[3,4′-bipyridin]-2′-yl)-9-isopropoxy-7,7-dimethyl-3,4,7,8-tetrahydro-2H-cyclopenta[4,5]pyrrolo[1,2-a]pyrazin-1(6H)-one] | 0.65 nM | 
C[C@H]1CN(C2COC2)CCN1c1ccc(Nc2cc(-c3ccnc(N4CCn5c6c(c(F)c5C4=O)CC(C)(C)C6)c3CO)cn(C)c2=O)nc1 [Example H01, (S)-9-fluoro-2-(3′-(hydroxymethyl)-1-methyl-5-((5-(2-methyl-4-(oxetan-3-yl)piperazin-1-yl)pyridin-2-yl)amino)-6-oxo-1,6-dihydro-[3,4′-bipyridin]-2′-yl)-7,7-dimethyl-3,4,7,8-tetrahydro-2H-cyclopenta[4,5]pyrrolo[1,2-a]pyrazin-1(6H)-one] | 0.23 nM | 24 nM
Cn1cc(-c2ccnc(N3CCn4c5c(c(F)c4C3=O)CC(C)(C)C5)c2CO)cc(Nc2ccc(N3CCC4(CC3)COC4)cn2)c1=O [Example H11, 2-(5-((5-(2-oxa-7-azaspiro[3.5]nonan-7-yl)pyridin-2-yl)amino)-3′-(hydroxymethyl)-1-methyl-6-oxo-1,6-dihydro-[3,4′-bipyridin]-2′-yl)-9-fluoro-7,7-dimethyl-3,4,7,8-tetrahydro-2H-cyclopenta[4,5]pyrrolo[1,2-a]pyrazin-1(6H)-one] | 0.26 nM | 13 nM
C=CC(=O)N1CCC[C@@H](n2nc(-c3ccc(Oc4ccccc4)cc3)c3c(N)ncnc32)C1 [Ibrutinib, reference compound] |  | 87 nM
Cc1c2c(n3c1C(=O)N(c1nccc(-c4cc(Nc5ccc(N6CCN(C7COC7)C[C@@H]6C)cn5)c(=O)n(C)c4)c1CO)CC3)CC(C)(C)C2 [Example H03, (S)-2-(3′-(hydroxymethyl)-1-methyl-5-((5-(2-methyl-4-(oxetan-3-yl)piperazin-1-yl)pyridin-2-yl)amino)-6-oxo-1,6-dihydro-[3,4′-bipyridin]-2′-yl)-7,7,9-trimethyl-3,4,7,8-tetrahydro-2H-cyclopenta[4,5]pyrrolo[1,2-a]pyrazin-1(6H)-one] | 0.14 nM | 61 nM
C[C@H]1CN(C2COC2)CCN1c1ccc(Nc2cc(-c3c(C#N)ccc(N4CCn5c(cc6c5CC(C)(C)C6)C4=O)c3CO)cn(C)c2=O)nc1 [Example H07, (S)-4-(7,7-dimethyl-1-oxo-1,3,4,6,7,8-hexahydro-2H-cyclopenta [4,5]pyrrolo[1,2-a]pyrazin-2-yl)-3-(hydroxymethyl)-2-(1-methyl-5-((5-(2-methyl-4-(oxetan-3-yl)piperazin-1-yl)pyridin-2-yl)amino)-6-oxo-1,6-dihydropyridin-3-yl) benzonitrile] | 0.38 nM | 40 nM
C[C@H]1CN(C2COC2)CCN1c1ccc(Nc2cc(-c3ccnc(N4CCn5c6c(c(N)c5C4=O)CC(C)(C)C6)c3CO)cn(C)c2=O)nc1 [Example H25, (S)-9-amino-2-(3′-(hydroxymethyl)-1-methyl-5-((5-(2-methyl-4-(oxetan-3-yl)piperazin-1-yl)pyridin-2-yl)amino)-6-oxo-1,6-dihydro-[3,4′-bipyridin]-2′-yl)-7,7-dimethyl-3,4,7,8-tetrahydro-2H-cyclopenta[4,5]pyrrolo[1,2-a]pyrazin-1(6H)-one] | 0.44 nM | 

Second part, the molecule after the results:

IC50 (BTK kinase) | IC50 [1] | Compound
0.26 nM | 26 nM | CC(C)n1cc(-c2ccnc(N3CCn4c(cc5c4CC(C)(C)C5)C3=O)c2CO)cc(Nc2ccc(N3CCN(C4COC4)C[C@@H]3C)cn2)c1=O [Example H04, (S)-2-(3′-(hydroxymethyl)-1-isopropyl-5-((5-(2-methyl-4-(oxetan-3-yl)piperazin-1-yl)pyridin-2-yl)amino)-6-oxo-1,6-dihydro-[3,4′-bipyridin]-2′-yl)-7,7-dimethyl-3,4,7,8-tetrahydro-2H-cyclopenta[4,5]pyrrolo[1,2-a]pyrazin-1(6H)-one]
0.18 nM | 19 nM | Cn1cc(-c2ccnc(N3CCn4c5c(c(F)c4C3=O)CC(C)(C)C5)c2CO)cc(Nc2ccc(N3CCC4(CC3)CC(O)C4)cn2)c1=O [Example H13, 9-fluoro-2-(5-((5-(2-hydroxy-7-azaspiro[3.5]nonan-7-yl)pyridin-2-yl)amino)-3′-(hydroxymethyl)-1-methyl-6-oxo-1,6-dihydro-[3,4′-bipyridin]-2′-yl)-7,7-dimethyl-3,4,7,8-tetrahydro-2H-cyclopenta[4,5]pyrrolo[1,2-a]pyrazin-1(6H)-one]
0.59 nM | 23 nM | C[C@H]1CN(C2COC2)CCN1c1ccc(Nc2cc(-c3ccnc(N4CCn5c6c(c(Cl)c5C4=O)CC(C)(C)C6)c3CO)cn(C)c2=O)nc1 [Example H02, (S)-9-chloro-2-(3′-(hydroxymethyl)-1-methyl-5-((5-(2-methyl-4-(oxetan-3-yl)piperazin-1-yl)pyridin-2-yl)amino)-6-oxo-1,6-dihydro-[3,4′-bipyridin]-2′-yl)-7,7-dimethyl-3,4,7,8-tetrahydro-2H-cyclopenta[4,5]pyrrolo[1,2-a]pyrazin-1(6H)-one]
0.49 nM | 13 nM | CN1CC2(CCN(c3ccc(Nc4cc(-c5ccnc(N6CCn7c8c(c(F)c7C6=O)CC(C)(C)C8)c5CO)cn(C)c4=O)nc3)CC2)C1 [Example H12, 9-fluoro-2-(3′-(hydroxymethyl)-1-methyl-5-((5-(2-methyl-2,7-diazaspiro[3.5]nonan-7-yl)pyridin-2-yl)amino)-6-oxo-1,6-dihydro-[3,4′-bipyridin]-2′-yl)-7,7-dimethyl-3,4,7,8-tetrahydro-2H-cyclopenta[4,5]pyrrolo[1,2-a]pyrazin-1(6H)-one]
0.55 nM |  | CCOc1c2c(n3c1C(=O)N(c1nccc(-c4cc(Nc5ccc(N6CCN(C7COC7)C[C@@H]6C)cn5)c(=O)n(C)c4)c1CO)CC3)CC(C)(C)C2 [Example H20, (S)-9-ethoxy-2-(3′-(hydroxymethyl)-1-methyl-5-((5-(2-methyl-4-(oxetan-3-yl)piperazin-1-yl)pyridin-2-yl)amino)-6-oxo-1,6-dihydro-[3,4′-bipyridyl]-2′-yl)-7,7-dimethyl-3,4,7,8-tetrahydro-2H-cyclopenta[4,5]pyrrolo[1,2-a]pyrazin-1(6H)-one]
0.52 nM |  | C[C@H]1CN(C2COC2)CCN1c1ccc(Nc2cc(-c3ccnc(N4CCn5c6c(c(C(F)(F)F)c5C4=O)CC(C)(C)C6)c3CO)cn(C)c2=O)nc1 [Example H19, (S)-2-(3′-(hydroxymethyl)-1-methyl-5-((5-(2-methyl-4-(oxetan-3-yl)piperazin-1-yl)pyridin-2-yl)amino)-6-oxo-1,6-dihydro-[3,4′-bipyridin]-2′-yl)-7,7-dimethyl-9-(trifluoromethyl)-3,4,7,8-hexahydro-2H-cyclopenta[4,5]pyrrolo[1,2-a]pyrazine-1(6H)-one]
0.65 nM |  | C[C@H]1CN(C2COC2)CCN1c1ccc(Nc2cc(-c3ccnc(N4CCn5c6c(c(C#N)c5C4=O)CC(C)(C)C6)c3CO)cn(C)c2=O)nc1 [Example H18, (S)-2-(3′-(hydroxymethyl)-1-methyl-5-((5-(2-methyl-4-(oxetan-3-yl)piperazin-1-yl)pyridin-2-yl)amino)-6-oxo-1,6-dihydro-[3,4′-bipyridin]-2′-yl)-7,7-dimethyl-1-oxo-1,3,4,6,7,8-hexahydro-2H-cyclopenta[4,5]pyrrolo[1,2-a]pyrazine-9-carbonitrile]
